± gives the expanded uncertainty stated by the source.
Assays:
[1] = Molar enthalpy of transition or fusion; details: Crystal; DSC
[2] = Crystal; DTA

Molar enthalpy of transition or fusion [1]	Normal melting temperature [2]	SMILES
34.1 ± 0.8 kJ/mol	261.6 ± 0.4 °C	CN1C(=O)N[C@@H]2NC(=O)N[C@@H]21 (racemic)
20.1 ± 0.7 kJ/mol	92.6 ± 0.4 °C	CN1C(=O)N[C@H]2[C@@H]1N(C)C(=O)N2C (racemic)
24.4 ± 0.7 kJ/mol	277.1 ± 0.4 °C	CN1C(=O)N[C@H]2[C@@H]1NC(=O)N2C (racemic)
